From ChEMBL document CHEMBL3885861, “Open TG-GATES”

Organism: Rattus norvegicus
Experiment: Open TG-GATES - Regimen: Daily Repeat
Format: toxicity, organism-based, Sprague-Dawley
Set-up: regimen Daily Repeat, gender Male, age 6 weeks
Conditions: in vivo, po, 0 mg/kg, route gavage, dose level Control; for APTT / Bas / Eos / Fbg / Hb / Ht / Lym / MCH / MCHC / MCV / Mono / Neu / PT / Plat / RBC / Ret / WBC: tissue Blood; for KIDNEY_L / KIDNEY_R / KIDNEY_TOTAL: tissue Kidney; for LIVER: tissue Liver; for A/G / ALP / ALT / AST / BUN / CRE / Ca / Cl / DBIL / GLC / IP / K / LDH / Na / PL / RALB / TBIL / TC / TG / TP / gamma-GTP: tissue Plasma

C=CCO [ALLYL ALCOHOL]
TERMINAL_BW (72 h, time 3 day): 237.2 g
APTT (72 h, time 3 day): 19.1 s
Bas (72 h, time 3 day): 0%
Eos (72 h, time 3 day): 1%
Fbg (72 h, time 3 day): 221.6 mg/dL
Hb (72 h, time 3 day): 13.4 g/dL
Ht (72 h, time 3 day): 39.6%
Lym (72 h, time 3 day): 79.4%
MCH (72 h, time 3 day): 21 pg
MCHC (72 h, time 3 day): 33.8%
MCV (72 h, time 3 day): 62.1 fL
Mono (72 h, time 3 day): 2.8%
Neu (72 h, time 3 day): 16.6%
PT (72 h, time 3 day): 11.7 s
Plat (72 h, time 3 day): 133.7 x10_4/uL
RBC (72 h, time 3 day): 638 x10_4/ul
Ret (72 h, time 3 day): 5.7%
WBC (72 h, time 3 day): 129.8 x10_2/uL
KIDNEY_L (72 h, time 3 day): 1 g
KIDNEY_R (72 h, time 3 day): 1 g
KIDNEY_TOTAL (72 h, time 3 day): 2 g
LIVER (72 h, time 3 day): 11.1 g
A/G (72 h, time 3 day): 1.6
ALP (72 h, time 3 day): 952.4 IU/L
ALT (72 h, time 3 day): 38 IU/L
AST (72 h, time 3 day): 65.8 IU/L
BUN (72 h, time 3 day): 16.2 mg/dL
CRE (72 h, time 3 day): 0.4 mg/dL
Ca (72 h, time 3 day): 10.7 mg/dL
Cl (72 h, time 3 day): 103.4 meq/L
DBIL (72 h, time 3 day): 0.088 mg/dL
GLC (72 h, time 3 day): 225.8 mg/dL
IP (72 h, time 3 day): 6.1 mg/dL
K (72 h, time 3 day): 4 meq/L
LDH (72 h, time 3 day): 245.4 IU/L
Na (72 h, time 3 day): 140.8 meq/L
PL (72 h, time 3 day): 148.2 mg/dL
RALB (72 h, time 3 day): 3.4 g/dL
TBIL (72 h, time 3 day): 0.1 mg/dL
TC (72 h, time 3 day): 77.4 mg/dL
TG (72 h, time 3 day): 110.2 mg/dL
TP (72 h, time 3 day): 5.4 g/dL
gamma-GTP (72 h, time 3 day): 0.8 IU/L
TERMINAL_BW ([…], time 7 day): 272.9 g
TERMINAL_BW ([…], time 14 day): 319.8 g
TERMINAL_BW ([…], time 28 day): 385.1 g
APTT ([…], time 7 day): 20 s
Bas ([…], time 7 day): 0%
Eos ([…], time 7 day): 1%
Fbg ([…], time 7 day): 227.6 mg/dL
Hb ([…], time 7 day): 13.3 g/dL
Ht ([…], time 7 day): 38.8%
Lym ([…], time 7 day): 79.4%
MCH ([…], time 7 day): 20.9 pg
MCHC ([…], time 7 day): 34.4%
MCV ([…], time 7 day): 60.6 fL
Mono ([…], time 7 day): 3%
Neu ([…], time 7 day): 16.2%
PT ([…], time 7 day): 11.9 s
Plat ([…], time 7 day): 136 x10_4/uL
RBC ([…], time 7 day): 640.4 x10_4/ul
Ret ([…], time 7 day): 5%
WBC ([…], time 7 day): 119.1 x10_2/uL
APTT ([…], time 14 day): 19.8 s
Bas ([…], time 14 day): 0%
Eos ([…], time 14 day): 1%
Fbg ([…], time 14 day): 229 mg/dL
Hb ([…], time 14 day): 14.2 g/dL
Ht ([…], time 14 day): 41%
Lym ([…], time 14 day): 78.2%
MCH ([…], time 14 day): 20.2 pg
MCHC ([…], time 14 day): 34.6%
MCV ([…], time 14 day): 58.5 fL
Mono ([…], time 14 day): 2.8%
Neu ([…], time 14 day): 17.6%
PT ([…], time 14 day): 12 s
Plat ([…], time 14 day): 126.7 x10_4/uL
RBC ([…], time 14 day): 701.8 x10_4/ul
Ret ([…], time 14 day): 4.1%
WBC ([…], time 14 day): 144 x10_2/uL
APTT ([…], time 28 day): 20.9 s
Bas ([…], time 28 day): 0%
Eos ([…], time 28 day): 1%
Fbg ([…], time 28 day): 220.6 mg/dL
Hb ([…], time 28 day): 15.7 g/dL
Ht ([…], time 28 day): 45.2%
Lym ([…], time 28 day): 81.8%
MCH ([…], time 28 day): 19.6 pg
MCHC ([…], time 28 day): 34.7%
MCV ([…], time 28 day): 56.5 fL
Mono ([…], time 28 day): 2.4%
Neu ([…], time 28 day): 14.4%
PT ([…], time 28 day): 11.8 s
Plat ([…], time 28 day): 111.6 x10_4/uL
RBC ([…], time 28 day): 801.6 x10_4/ul
Ret ([…], time 28 day): 2.6%
WBC ([…], time 28 day): 94.8 x10_2/uL
KIDNEY_L ([…], time 7 day): 1.1 g
KIDNEY_R ([…], time 7 day): 1.1 g
KIDNEY_TOTAL ([…], time 7 day): 2.2 g
KIDNEY_L ([…], time 14 day): 1.2 g
KIDNEY_R ([…], time 14 day): 1.2 g
KIDNEY_TOTAL ([…], time 14 day): 2.4 g
KIDNEY_L ([…], time 28 day): 1.3 g
KIDNEY_R ([…], time 28 day): 1.3 g
KIDNEY_TOTAL ([…], time 28 day): 2.6 g
LIVER ([…], time 7 day): 13.1 g
LIVER ([…], time 14 day): 14.1 g
LIVER ([…], time 28 day): 16 g
A/G ([…], time 7 day): 1.5
ALP ([…], time 7 day): 889.2 IU/L
ALT ([…], time 7 day): 34 IU/L
AST ([…], time 7 day): 60.8 IU/L
BUN ([…], time 7 day): 16.6 mg/dL
CRE ([…], time 7 day): 0.4 mg/dL
Ca ([…], time 7 day): 10.9 mg/dL
Cl ([…], time 7 day): 102 meq/L
DBIL ([…], time 7 day): 0.098 mg/dL
GLC ([…], time 7 day): 219.6 mg/dL
IP ([…], time 7 day): 6.9 mg/dL
K ([…], time 7 day): 3.9 meq/L
LDH ([…], time 7 day): 180.4 IU/L
Na ([…], time 7 day): 140.6 meq/L
PL ([…], time 7 day): 146 mg/dL
RALB ([…], time 7 day): 3.4 g/dL
TBIL ([…], time 7 day): 0.2 mg/dL
TC ([…], time 7 day): 74 mg/dL
TG ([…], time 7 day): 124.4 mg/dL
TP ([…], time 7 day): 5.6 g/dL
gamma-GTP ([…], time 7 day): 0.8 IU/L
A/G ([…], time 14 day): 1.4
ALP ([…], time 14 day): 766.2 IU/L
ALT ([…], time 14 day): 34.2 IU/L
AST ([…], time 14 day): 61.2 IU/L
BUN ([…], time 14 day): 14.8 mg/dL
CRE ([…], time 14 day): 0.4 mg/dL
Ca ([…], time 14 day): 10.5 mg/dL
Cl ([…], time 14 day): 101.4 meq/L
DBIL ([…], time 14 day): 0.072 mg/dL
GLC ([…], time 14 day): 234 mg/dL
IP ([…], time 14 day): 6.9 mg/dL
K ([…], time 14 day): 3.7 meq/L
LDH ([…], time 14 day): 223.2 IU/L
Na ([…], time 14 day): 140.2 meq/L
PL ([…], time 14 day): 141.2 mg/dL
RALB ([…], time 14 day): 3.4 g/dL
TBIL ([…], time 14 day): 0.1 mg/dL
TC ([…], time 14 day): 68.8 mg/dL
TG ([…], time 14 day): 101 mg/dL
TP ([…], time 14 day): 5.8 g/dL
gamma-GTP ([…], time 14 day): 1.2 IU/L
A/G ([…], time 28 day): 1.3
ALP ([…], time 28 day): 588.4 IU/L
ALT ([…], time 28 day): 33.6 IU/L
AST ([…], time 28 day): 59.2 IU/L
BUN ([…], time 28 day): 15.4 mg/dL
CRE ([…], time 28 day): 0.5 mg/dL
Ca ([…], time 28 day): 10.5 mg/dL
Cl ([…], time 28 day): 101.8 meq/L
DBIL ([…], time 28 day): 0.068 mg/dL
GLC ([…], time 28 day): 222.2 mg/dL
IP ([…], time 28 day): 6.1 mg/dL
K ([…], time 28 day): 3.4 meq/L
LDH ([…], time 28 day): 166.6 IU/L
Na ([…], time 28 day): 140.6 meq/L
PL ([…], time 28 day): 141.8 mg/dL
RALB ([…], time 28 day): 3.5 g/dL
TBIL ([…], time 28 day): 0.1 mg/dL
TC ([…], time 28 day): 71.2 mg/dL
TG ([…], time 28 day): 100.2 mg/dL
TP ([…], time 28 day): 6.2 g/dL
gamma-GTP ([…], time 28 day): 1 IU/L
